# Assay results as given in ChEMBL document CHEMBL1201862, “PubChem BioAssay data set” (2004).
#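 Assay format: 96-well plates, 48-hour exposure. Abbreviation: GI50, concentration required for 50% inhibition of growth.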 Active and inactive are the calls of the source. No stated cut-off is given here; in the data, active = GI50 up to about 1.1 µM and inactive = higher.
# What was measured:
# Assay in all cases: NCI anticancer screen, dose series, 48 h
# 786-0 = tested on: 786-0
# A498 = tested on: A498
# A549 = tested on: A549
# ACHN = tested on: ACHN
# CAKI-1 = tested on: CAKI-1
# CCRF-CEM = tested on: CCRF-CEM
# COLO 205 = tested on: COLO 205
# DLD-1 = tested on: DLD-1
# DMS-114 = tested on: DMS-114
# DMS-273 = tested on: DMS-273
# EKVX = tested on: EKVX
# HCC 2998 = tested on: HCC 2998
# HCT-116 = tested on: HCT-116
# HCT-15 = tested on: HCT-15
# HL-60 = tested on: HL-60
# HOP-18 = tested on: HOP-18
# HOP-62 = tested on: HOP-62
# HT-29 = tested on: HT-29
# IGROV-1 = tested on: IGROV-1
# K562 = tested on: K562
# KM-20L2 = tested on: KM-20L2
# KM12 = tested on: KM12
# LOX IMVI = tested on: LOX IMVI
# M14 = tested on: M14
# M19-MEL = tested on: M19-MEL
# MOLT-4 = tested on: MOLT-4
# Malme-3M = tested on: Malme-3M
# NCI-H226 = tested on: NCI-H226
# NCI-H23 = tested on: NCI-H23
# NCI-H460 = tested on: NCI-H460
# NCI-H522 = tested on: NCI-H522
# OVCAR-3 = tested on: OVCAR-3
# OVCAR-4 = tested on: OVCAR-4
# OVCAR-5 = tested on: OVCAR-5
# OVCAR-8 = tested on: OVCAR-8
# RXF 393 = tested on: RXF 393
# RXF 631 = tested on: RXF 631
# SF-268 = tested on: SF-268
# SF-295 = tested on: SF-295
# SF-539 = tested on: SF-539
# SK-MEL-28 = tested on: SK-MEL-28
# SK-MEL-2 = tested on: SK-MEL-2
# SK-MEL-5 = tested on: SK-MEL-5
# SK-OV-3 = tested on: SK-OV-3
# SN12C = tested on: SN12C
# SNB-19 = tested on: SNB-19
# SNB-75 = tested on: SNB-75
# SNB-78 = tested on: SNB-78
# SW-620 = tested on: SW-620
# TK-10 = tested on: TK-10
# U-251 = tested on: U-251
# UACC-257 = tested on: UACC-257
# UACC-62 = tested on: UACC-62
# XF498 = tested on: XF498
# HOP-92 = tested on: HOP-92
# LXFL 529 = tested on: LXFL 529
# RPMI-8226 = tested on: RPMI-8226
# UO-31 = tested on: UO-31
smiles,measurement,setting,value
CCOC(=O)C1Nc2ccc([N+](=O)[O-])cc2[C@H]2OCC[C@@H]12 (stereo partly specified),GI50,786-0,> 100 µM (inactive)
same,GI50,A498,> 100 µM (inactive)
same,GI50,A549,> 100 µM (inactive)
same,GI50,ACHN,> 100 µM (inactive)
same,GI50,CAKI-1,> 100 µM (inactive)
same,GI50,CCRF-CEM,> 100 µM (inactive)
same,GI50,COLO 205,> 100 µM (inactive)
same,GI50,DLD-1,> 100 µM (inactive)
same,GI50,DMS-114,> 100 µM (inactive)
same,GI50,DMS-273,> 100 µM (inactive)
same,GI50,EKVX,> 100 µM (inactive)
same,GI50,HCC 2998,> 100 µM (inactive)
same,GI50,HCT-116,> 100 µM (inactive)
same,GI50,HCT-15,> 100 µM
same,GI50,HL-60,> 100 µM (inactive)
same,GI50,HOP-18,> 100 µM (inactive)
same,GI50,HOP-62,> 100 µM (inactive)
same,GI50,HT-29,> 100 µM (inactive)
same,GI50,IGROV-1,> 100 µM (inactive)
same,GI50,K562,> 100 µM (inactive)
same,GI50,KM-20L2,> 100 µM (inactive)
same,GI50,KM12,> 100 µM (inactive)
same,GI50,LOX IMVI,> 100 µM (inactive)
same,GI50,M14,> 100 µM (inactive)
same,GI50,M19-MEL,> 100 µM (inactive)
same,GI50,MOLT-4,> 100 µM (inactive)
same,GI50,Malme-3M,> 100 µM (inactive)
same,GI50,NCI-H226,> 100 µM (inactive)
same,GI50,NCI-H23,> 100 µM (inactive)
same,GI50,NCI-H460,> 100 µM (inactive)
same,GI50,NCI-H522,> 100 µM (inactive)
same,GI50,OVCAR-3,> 100 µM (inactive)
same,GI50,OVCAR-4,> 100 µM (inactive)
same,GI50,OVCAR-5,> 100 µM (inactive)
same,GI50,OVCAR-8,> 100 µM (inactive)
same,GI50,RXF 393,> 100 µM (inactive)
same,GI50,RXF 631,> 100 µM (inactive)
same,GI50,SF-268,> 100 µM (inactive)
same,GI50,SF-295,> 100 µM (inactive)
same,GI50,SF-539,> 100 µM (inactive)
same,GI50,SK-MEL-28,> 100 µM (inactive)
same,GI50,SK-MEL-2,> 100 µM (inactive)
same,GI50,SK-MEL-5,> 100 µM (inactive)
same,GI50,SK-OV-3,> 100 µM (inactive)
same,GI50,SN12C,> 100 µM (inactive)
same,GI50,SNB-19,> 100 µM (inactive)
same,GI50,SNB-75,> 100 µM (inactive)
same,GI50,SNB-78,> 100 µM (inactive)
same,GI50,SW-620,> 100 µM (inactive)
same,GI50,TK-10,> 100 µM (inactive)
same,GI50,U-251,> 100 µM (inactive)
same,GI50,UACC-257,> 100 µM (inactive)
same,GI50,UACC-62,> 100 µM (inactive)
same,GI50,XF498,> 100 µM (inactive)
COc1ccc2c(c1)CCCN2CCCCCCCCCCN(CCC(C)C)CCC(C)C,GI50,786-0,14.2 µM (inactive)
same,GI50,A498,16.7 µM (inactive)
same,GI50,A549,11.7 µM (inactive)
same,GI50,ACHN,10.9 µM (inactive)
same,GI50,CAKI-1,14.7 µM (inactive)
same,GI50,CCRF-CEM,7.29 µM (inactive)
same,GI50,COLO 205,12.1 µM (inactive)
same,GI50,DLD-1,10.5 µM (inactive)
same,GI50,DMS-114,4.97 µM (inactive)
same,GI50,DMS-273,10.1 µM (inactive)
same,GI50,EKVX,6.44 µM (inactive)
same,GI50,HCC 2998,6.98 µM (inactive)
same,GI50,HCT-15,8.34 µM
same,GI50,HL-60,2.9 µM (inactive)
same,GI50,HOP-18,12.1 µM (inactive)
same,GI50,HOP-62,13.1 µM (inactive)
same,GI50,HOP-92,4.34 µM (inactive)
same,GI50,HT-29,4.65 µM (inactive)
same,GI50,IGROV-1,12.2 µM (inactive)
same,GI50,K562,4.24 µM (inactive)
same,GI50,KM-20L2,10.2 µM (inactive)
same,GI50,KM12,4.55 µM (inactive)
same,GI50,LOX IMVI,12.4 µM (inactive)
same,GI50,LXFL 529,10.2 µM (inactive)
same,GI50,M14,13.3 µM (inactive)
same,GI50,M19-MEL,15.3 µM (inactive)
same,GI50,MOLT-4,5.58 µM (inactive)
same,GI50,Malme-3M,13.4 µM (inactive)
same,GI50,NCI-H226,14 µM (inactive)
same,GI50,NCI-H23,3.25 µM (inactive)
same,GI50,NCI-H460,11.2 µM (inactive)
same,GI50,NCI-H522,2.2 µM (inactive)
same,GI50,OVCAR-3,4.79 µM (inactive)
same,GI50,OVCAR-4,5.61 µM (inactive)
same,GI50,OVCAR-5,14.9 µM (inactive)
same,GI50,RPMI-8226,2.26 µM (inactive)
same,GI50,RXF 631,8.87 µM (inactive)
same,GI50,SF-268,11.6 µM (inactive)
same,GI50,SF-295,14.1 µM (inactive)
same,GI50,SF-539,3.39 µM (inactive)
same,GI50,SK-MEL-28,13.6 µM (inactive)
same,GI50,SK-MEL-2,9.4 µM (inactive)
same,GI50,SK-MEL-5,6.46 µM (inactive)
same,GI50,SK-OV-3,19.3 µM (inactive)
same,GI50,SNB-19,13.9 µM (inactive)
same,GI50,SNB-78,16.8 µM (inactive)
same,GI50,SW-620,12.6 µM (inactive)
same,GI50,TK-10,16.4 µM (inactive)
same,GI50,U-251,13.2 µM (inactive)
same,GI50,UACC-257,14.9 µM (inactive)
same,GI50,UACC-62,12.2 µM (inactive)
same,GI50,UO-31,3.11 µM (inactive)
same,GI50,XF498,7.89 µM (inactive)
COc1c(C2=NC(C(C)C)CO2)ccc2ccccc12 (stereo unspecified),GI50,786-0,45.9 µM (inactive)
same,GI50,A498,27.3 µM (inactive)
same,GI50,A549,32.7 µM (inactive)
same,GI50,ACHN,42.6 µM (inactive)
same,GI50,CAKI-1,61.5 µM (inactive)
same,GI50,CCRF-CEM,15.3 µM (inactive)
same,GI50,COLO 205,41.2 µM (inactive)
same,GI50,DLD-1,16.1 µM (inactive)
same,GI50,DMS-273,23 µM (inactive)
same,GI50,EKVX,37.1 µM (inactive)
same,GI50,HCC 2998,23.7 µM (inactive)
same,GI50,HCT-15,5.11 µM
same,GI50,HL-60,14.6 µM (inactive)
same,GI50,HOP-62,47.8 µM (inactive)
same,GI50,HOP-92,30.1 µM (inactive)
same,GI50,HT-29,24.3 µM (inactive)
same,GI50,IGROV-1,71 µM (inactive)
same,GI50,K562,15.1 µM (inactive)
same,GI50,KM-20L2,42.1 µM (inactive)
same,GI50,KM12,28.1 µM (inactive)
same,GI50,LOX IMVI,21.5 µM (inactive)
same,GI50,LXFL 529,19.2 µM (inactive)
same,GI50,M14,63.5 µM (inactive)
same,GI50,M19-MEL,55.5 µM (inactive)
same,GI50,MOLT-4,14.2 µM (inactive)
same,GI50,Malme-3M,35.8 µM (inactive)
same,GI50,NCI-H226,30.6 µM (inactive)
same,GI50,NCI-H23,34.6 µM (inactive)
same,GI50,NCI-H460,9.25 µM (inactive)
same,GI50,NCI-H522,28.2 µM (inactive)
same,GI50,OVCAR-3,37.2 µM (inactive)
same,GI50,OVCAR-4,31.7 µM (inactive)
same,GI50,OVCAR-5,82.8 µM (inactive)
same,GI50,OVCAR-8,41.5 µM (inactive)
same,GI50,RPMI-8226,22.6 µM (inactive)
same,GI50,RXF 393,16.4 µM (inactive)
same,GI50,RXF 631,39.5 µM (inactive)
same,GI50,SF-268,29.6 µM (inactive)
same,GI50,SF-295,26.7 µM (inactive)
same,GI50,SF-539,34.8 µM (inactive)
same,GI50,SK-MEL-28,38.6 µM (inactive)
same,GI50,SK-MEL-2,65.5 µM (inactive)
same,GI50,SK-MEL-5,14.2 µM (inactive)
same,GI50,SK-OV-3,> 100 µM (inactive)
same,GI50,SN12C,64.3 µM (inactive)
same,GI50,SNB-19,50.5 µM (inactive)
same,GI50,SNB-75,27.6 µM (inactive)
same,GI50,SNB-78,79.4 µM (inactive)
same,GI50,SW-620,45 µM (inactive)
same,GI50,TK-10,88.3 µM (inactive)
same,GI50,UACC-257,34.2 µM (inactive)
same,GI50,UACC-62,49 µM (inactive)
same,GI50,UO-31,31.4 µM (inactive)
same,GI50,XF498,30.4 µM (inactive)
